Data: patent US10577399B2, “Modified lantibiotics and methods of making and using the modified lantibiotics” (priority 2016, dated 2020)
Values after ≈ are worked out from the molar mass of the structure shown. “Also recorded” adds a separate entry of the source.

Key:
M. luteus ATCC 10240 = type: cell-based, Micrococcus luteus
Procedure, shortened: (§1)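 Broth microdilution: antibiotic in 50% acetonitrile, 2-fold dilutions from 640 μg/mL stock down to 0.156 μg/mL, 10 μL per well plus 190 μL of ~10^5 CFU bacteria grown in THyex at 37 °C. MIC read as concentration preventing visible growth after 24 h.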

Solubility in saline = type: physicochemical; conditions: saline solution
trypsin = assay: Trypsin stability screen with M. luteus overlay; type: in vitro ADME; conditions: 0.5 mg/mL trypsin, 37° C., 30 minutes
Text: Selective activity and stability of analogs: Several core peptide mutants are provided that have improved activity against our ATCC strain of S. pneumoniae. These core peptide mutants were also selected based on the absence of a dehydrated residue Dha/Dhb or the proteolytically susceptible arginine residue. […] Although the analog S5G had improved activity against S. pneumoniae ATCC 27336 compared to native mutacin and R13A, the S5G had less activity against all other tested strains of S. pneumoniae. […] 4) The R13A mutation prevents feedback inhibition of mutacin 1140 production, leading to a 100% increase in yield from the culture liquor. […] They are important for immunoregulation and blood coagulation. The observed increase in stability of the R13A analog will likely be advantageous in an animal model.

[1] = Pharmacokinetics after intravenous dose in mice; type: in vivo; conditions: mouse, iv, 2.5 mg/kg i. v., BALB/c mice, polynomial second order estimate
Method: The compounds were dissolved in normal saline for all pharmacokinetic studies. An extraction protocol was developed in vitro by the addition of each compound to commercially bought BALB/c mouse serum. The compounds were extracted by the addition of 70% ACN containing 0.1% TFA/30% methanol containing 0.4% formic acid. The extract was then analyzed by LC-MS using a TSQ Vantage Triple Quad mass spectrometer. A standard curve was generated for each compound using known dilutions of the compounds in serum, which was then extracted. The R-squared values for each standard exceeded 0.98. BALB/c mice were used to evaluate pharmacokinetics of the compounds in vivo. A 2.5 mg/kg i. v. dose was evaluated for native mutacin, R13A, S5G, and double mutant S5A:T14G (FIG. 12A). A polynomial second order was used to estimate the peak plasma concentration and half-life of the R13A. […] Possibly, the Dhb14 residue may protect the peptide from trypsin-like proteases in the blood. […] Thus, taking the dynamics of cell death into account and the pharmacokinetics of the R13A, the R13A in serum is above the inhibitory concentration for S. pneumonia long enough to kill the pathogen.

S. pneumoniae ATCC 27336 = type: cell-based, Streptococcus pneumoniae
Procedure, shortened: as §1

[2] = Lipid II binding assay by thin layer chromatography; conditions: 3:10 peptide:lipid II ratio
Method: Lipid II was a kind gift from Eefjan Breukink and was resuspended in a 1:1 Methanol:Chloroform solution. The lipid II binding assay using thin layer chromatography (TLC) was done as previously described^39. The mobile solvent consisted of consisted of butanol:acetic acid:water:pyridine (15:3:12:10 [vol/vol/vol/vol]). A 0.2 mM solution of mutacin 1140 or mu1140-COOH in 10 μL of solution A was mixed with lipid II (final […]) for 1 hour in a sealed glass vial. This corresponded to a ratio 3:10 peptide:lipid II ratio. All of the reaction mixtures and the appropriate controls were spotted (5 μL) 2 cm from the bottom of the plate. These spots define the origin of the plate. […] The mobile phase was allowed to climb up the plate until it reached a centimeter from the top. The plate was allowed to dry before staining with iodine.
With the loss of activity associated with a free carboxyl group in mu1140-COOH, the basis for the loss in activity was studied. The mechanism of action for class I lantibiotics has been determined to be due to lipid II binding^34-36. In particular, rings A and B are believed to form a cage-like structure around the pyrophosphate moiety of lipid II^37. The latter half of the peptide is predicted to enhance binding and recruit other lipid II-lantibiotic molecules into a large lipid II-lantibiotic complex^16. […]

B. subtilis PY79 cells = assay: Microscopy lipid II competition assay with fluorescein labeled nisin; type: cell-based, Bacillus subtilis; conditions: pretreatment 10 μg/mL for 15 minutes
Method: B. subtilis PY79 was grown and treated with fluorescein labeled peptide as previously described^39. A fresh plate of B. subtilis was used to inoculate THyex broth and incubated approximately 16 hours at 37° C. The culture was diluted 20-fold and placed back in the incubator for 3 hours at 37° C. Then, 100 μl of the culture was incubated with the antibiotic (10 μg/mL) for 15 minutes. The cells were pelleted and resuspended in 100 μl of phosphate buffer solution (PBS). The wash step was repeated three times before fixing with 1.6% formaldehyde in PBS. After fixation the cells were washed with PBS three more times and the remaining pellet was suspended in 50 μL of PBS. The sample (30 μL) was added to a slide and observed using an Olympus confocal microscope with a 100×/0.90 dry objective. A 488 nm argon laser was used to excite the fluorophore. For the competition assay, the bacterial culture was initially incubated with mu1140-COOH or native mutacin 1140 at a concentration of 10 μg/mL for 15 minutes, washed, and resuspended in fresh media. 10 μg/mL of fluorescein labeled nisin was then added for 15 minutes, before following the wash protocol previously stated.

SMILES	MIC (M. luteus ATCC 10240; Table 10, indicator strain Micrococcus luteus) [µg/mL]	solubility (Solubility in saline) [µg/mL]	stability to trypsin (trypsin)	half-life ([1]; in vivo, read-out: estimated half-life) [h]	Cmax ([1]; plasma, read-out: peak plasma concentration) [ng/mL]	MIC (μg/mL) S. pneumoniae (S. pneumoniae ATCC 27336; Table 7, S. pneumoniae ATCC 27336)	reduction in activity (MIC, S. pneumoniae ATCC 27336) (S. pneumoniae ATCC 27336; vs wild type mutacin 1140) [fold]	MIC (μg/mL) M. luteus (M. luteus ATCC 10240; Table 7, chemically modified analogs) [µg/mL]	reduction in activity compared to wild type mutacin 1140 (MIC, M. luteus) (M. luteus ATCC 10240; vs wild type mutacin 1140) [fold]	iodine stain at the origin of the TLC plate when mixed with lipid II [2]	binding of fluorescein labeled nisin after pretreatment of cells (B. subtilis PY79 cells)
C=C1NC(=O)[C@H](Cc2c[nH]c3ccccc23)NC(=O)C(NC(=O)[C@H](CCCCN)NC(=O)[C@@H](N)Cc2ccccc2)CSC[C@@H](C(=O)NC2C(=O)N3CCC[C@H]3C(=O)NCC(=O)N[C@H](C(=O)N[C@@H](C)C(=O)N[C@@H](C)C(=O)NC(=CC)C(=O)NCC(=O)NC3CSC[C@@H]4NC(=O)[C@H](Cc5ccc(O)cc5)NC(=O)[C@@H](CS/C=C\NC4=O)NC(=O)[C@H](CC(N)=O)NC(=O)[C@H](Cc4ccccc4)NC3=O)CSC2C)NC(=O)[C@H](CC(C)C)NC1=O (some centres unmarked) [Mutant R13A]	0.0625 (≈ 0.0287 µM)	> 2000	improved stability	1.17	1700	–	–	–	–	–	–
C=C1NC(=O)[C@H](Cc2c[nH]c3ccccc23)NC(=O)[C@H](NC(=O)[C@H](CCCCN)NC(=O)[C@@H](N)Cc2ccccc2)CSC[C@@H](C(=O)N[C@H]2C(=O)N3CCC[C@H]3C(=O)NCC(=O)N[C@H](C(=O)N[C@@H](C)C(=O)N[C@@H](CCCNC(=N)N)C(=O)N/C(=C\C)C(=O)NCC(=O)N[C@@H]3CSC[C@@H]4NC(=O)[C@H](Cc5ccc(O)cc5)NC(=O)[C@@H](CSC[C@@H](C(=O)O)NC4=O)NC(=O)[C@H](CC(N)=O)NC(=O)[C@H](Cc4ccccc4)NC3=O)CS[C@H]2C)NC(=O)[C@H](CC(C)C)NC1=O [Mu1140 - COOH]	–	–	–	–	–	greater than 64 μg/mL	> 128	32 (≈ 13.8 µM)	256	faint stain	no typical in vivo fluorescence pattern was observed; also recorded: drastically reduces binding of fluorescein labeled nisin
